Reference: EP1667954B1, “BIPOLAR TRANS CAROTENOID SALTS AND THEIR USES” (Diffusion Pharmaceuticals LLC, priority 2003, dated 2005)

Tests used:
[1] = result in words; cited from earlier work
[2] = Dissolution in normal saline and other salt solutions; type: physicochemical; conditions: no matter how much TSC is added (up to several milligrams per ml)
Protocol: Large volumes (as much as 3 times the estimated blood loss) of isotonic saline (also called normal saline) are infused as a treatment for hemorrhagic shock. The isotonic saline contains 9 g NaCl per liter of water so as not to disturb the ionic strength of the plasma once it is infused into the body. […] About 50% of the TSC dissolves in normal saline no matter how much TSC is added (up to several milligrams per ml), which means that undissolved particles of TSC are still present. […] The actual composition of the stock solution can be verified using UV-visible spectroscopy. This stock solution can be added to normal saline and the TSC remains dissolved.
This method can be used to dissolve a BTCS in other types of sodium chloride solutions, as well as in solutions of other salts such as KCl, Na2SO4, lactate, etc. Several, eg 1-3 mg/ml, can be put into solution in this manner.

[3] = tested on: rat model of acute hypoxia; conditions: hypoxia with 10% oxygen, treatment after 10 minutes; only 2 of 6 control animals survived; cited from earlier work
[4] = Aqueous solubility and solution stability of TSC / BTCS
Text: (§1) A dilute, eg .00001-.001M, solution of sodium carbonate can be added, dropwise, to deionized water until the pH is 8.0 (the pH of deionized water is usually 5-6). This only takes a few drops of the very dilute sodium carbonate per, say, 50 mls of deionized water.

[5] = tested on: hemorrhaged rats (55% blood volume); conditions: cited from earlier work
[6] = TSC by inhalation: drug in the blood stream after nebulizing into the trachea; type: in vivo; conditions: rats
Protocol: TSC has been given to rats via an inhalation route. Ten rats were given TSC directly into the lungs. This was done by inserting a tube into the trachea, and nebulizing 0.2 ml of TSC solution (TSC dissolved in dilute sodium carbonate solution) with about 3 to 6 mls of air. For all dosages studied (0.5-2 mg/kg), about 20% of the drug was present in the blood stream within one minute after it was given. For dosages of .8 -1.6 mg/kg the drug was present in the blood stream for a period of at least two hours.

physchem = conditions: water
Text: as §1

[7] = Diffusivity of oxygen through aqueous solutions
Text: TSC increases survival in mammals following hypoxia, increases oxygen consumption following hypoxia or physiological stress, increases blood pressure following hypoxia, decreases blood acidosis (i.e., decreases blood base deficit, increases blood pH, and decreases plasma lactate level) following hypoxia, decreases organ damage (e.g. liver, kidney) following hypoxia. Thus, the compounds of the disclosure are useful for treating mammal (including human) diseases/conditions which are characterized by low oxygen (hypoxia) such as respiratory diseases, hemorrhagic shock and cardiovascular diseases, multiple organ failure (due to, for example, ARDS sepsis or hemorrhagic shock), chronic renal failure, atherosclerosis, emphysema, asthma, hypertension, cerebral edema, papillomas, spinal cord injuries, stroke, among others. The compounds of the disclosure are also useful for treating mammals at risk for the above-noted diseases/conditions. Other bipolar trans carotenoid salts have similar properties.

Row | Structure (SMILES) | solubility in water [1] | amount of TSC that dissolves in normal saline [2] | survival and hemodynamic stability [3] | amount completely dissolved in sodium carbonate-deionized water solution ([4]; deionized water brought to pH 8.0 with dilute sodium carbonate) | stability of solutions in water ([4]; tap, distilled, deionized water) | survival ([5]; hemorrhaged rats (55% blood volume), bolus after hemorrhage, saline after another 30 minutes, all controls died) | Whole-body oxygen consumption ([5]; hemorrhaged rats, after about 15 minutes) | drug present in the blood stream ([6]; inhalation (intratracheal nebulizing), all dosages 0.5-2 mg/kg, within one minute) | period the drug was present in the blood stream ([6]; inhalation, dosages of .8 -1.6 mg/kg) | solubility (physchem) [µg/mL] | solubility (physchem; pH 8) [µg/mL] | increase of diffusivity of oxygen through aqueous solutions [7]
1 | CC(/C=C/C=C(\C)C(=O)O[C@@H]1O[C@H](CO[C@@H]2O[C@H](CO)[C@@H](O)[C@H](O)[C@H]2O)[C@@H](O)[C@H](O)[C@H]1O)=C\C=C\C=C(C)\C=C\C=C(/C)C(=O)O[C@@H]1O[C@H](CO[C@@H]2O[C@H](CO)[C@@H](O)[C@H](O)[C@H]2O)[C@@H](O)[C@H](O)[C@H]1O [crocin] | significant solubility | – | – | – | – | – | – | – | – | – | – | –
2 | CC(/C=C/C=C(\C)C(=O)O)=C\C=C\C=C(C)\C=C\C=C(/C)C(=O)O [TSC, Trans sodium crocetinate] | – | About 50% | all survived with good hemodynamic stability for over two hours | around 10 mg/ml | only stable if the pH is adjusted so as to make the solution basic | All of the TSC-treated animals lived | 75 % of normal resting value | about 20% | at least two | ~10000 | > 10000 | about 30%
3 | CC(/C=C/C=C(\C)C(=O)O)=C\C=C\C=C(C)\C=C\C=C(/C)C(=O)O [crocetin] | only sparingly soluble | – | – | – | – | – | – | – | – | – | – | –
